US6689762B1, “Composition and methods for treatment of HIV infection” (Enzon Pharmaceuticals, Inc., priority 1998, dated 2004)
Where “and” joins values, the source holds several entries; their conditions need not be identical. Equal entries are not always repeated.

What was measured:
[1] = test system: HIV-RNA in supernatant of HIV-1 infected CEM/0 T-cells; test: HIV-1 quantitative RNA assay (HIV-1 Monitor) in supernatants of CEM/0 T-cells; assay type: cell-based; set-up: inhibition of HIV-RNA in the supernatants in comparison to untreated control / % OF CONTROL / % control: concentration or dose not given beside the values
Excerpt: It should be noted that “PEG” in Table 3 represents PEG-ASNase.
Materials and Methods: The cell line used for these studies is CEM/0, a human T-cell leukemic cell line. PEG-ASNase (ONCASPAR) is provided by Rhone-Poulenc Rorer. Saquinavin is commercially available. AZT is purchased from Sigma. MISID, a ribonucleotide reductase inhibitor, is as described in Nandy P, Lien E J, Avramis V I, Med. Chem. Res. 1995, 5:664-679. RPMI-1640 media (Irvine Scientific, Irvine, Calif.), is enriched with 10% Fetal Calf Serum (Gemini Biosource, Calabasas, Calif.), 5% 1M Hepes Buffer solution and 5% Non-essential amino acids (Irvine Scientific, Irvine, Calif.). The drug concentrations used are as follows:
Briefly, 3×10^6 cells/ml are stimulated with PHA+ media for 48 hours at 37° C. with 5% CO2. Also, the same number of cells are incubated in PHA free media for 48 hours to serve as the negative control. At this point the cells are inoculated with the HIV-1 virus as per standard protocol. Note that in this experiment, the HIV containing supernatant from the PHA-stimulated healthy human peripheral mononuclear cells (PBMC) is not removed from the PHA-stimulated CEM/0 cell culture. […] These virus particles are continuously released by already infected T-cells and/or lymph nodes of patients.
The experimental drugs are added to the cells in the appropriate concentrations at the same time as viral inoculation or 90 minutes after the viral incubation, a time sufficient for the T-cells to be infected and start producing new HIV-1 virus particles. The control cells are resuspended in drug-free media for the duration of the exposure which lasted seven days. Aliquots of media from the control flasks only are obtained on day 5 post Rx. At day seven, three 1 ml each, aliquots of media are removed from the flasks and stored under liquid nitrogen. In addition, the remaining cells are split into three and then pelleted and stored at −80° C. Supernatant specimens are obtained form these T-cell cultures and are frozen at −80° C. The samples produced from this experiment are itemized. The cell pellets of the cellular cultures (see Experiment 9) from the 90 minute viral incubation flasks are assayed for HIV-RNA quantitative assay using a kit for the assay, non-radioactive. […] The standard curve is determined and the HIV-RNA levels for the experimental samples are calculated and reported previously.
This experiment is carried out using a similar procedure, and the same concentrations of materials as in Experiment 10, however the exposure of HIV-RNA in T-cell supernatants to a combination of PEG-ASNase, Saquinavir, AZT and 3TC is measured. It should be noted that “PEG” in Table 10 represents PEG-ASNase.

[2] = test system: HIV-RT levels of HIV-1 infected CEM/0 cell pellets; test: HIV-RT ELISA (Reverse Transcriptase Assay, non-radioactive) in cell pellets of HIV-1 infected CEM/0 T-cells; assay type: cell-based; details: Table 9
Excerpt: The following is a general procedure for the HIV-reverse transcriptase assay:
The cell line used for these studies is CCRF/CEM/O, a human T-leukemic cell line. PEG-ASNase (ONCASPAR) is provided by Rhone-Poulenc Rorer. Saquinavir is commercially available. RPMI-1640 media (Irvine Scientific, Irvine, Calif.) is enriched with 10% Fetal Calf Serum (Gemini Biosource, Calabasas, Calif.), 5% 1M Hepes Buffer solution and 5% Non-essential amino acids (Irvine Scientific, Irvine, Calif.). The drug concentrations used are as follows:
Briefly, 2×10^6 cells/ml are stimulated with PHA+ media for 48 hours at 37° C. with 5% CO2. Also, the same number of cells are incubated in PHA(phytohemagglutinin) free media for 48 hours to serve as the negative control. At this point the cells are inoculated with the HIV-1 virus as per standard protocol. PEG-ASNase and/or Saquinavir are added to the cells in the appropriate concentrations (see above). The control cells are resuspended in drug-free media for the duration of the exposure which lasted seven days. At day five, two 1 ml aliquots of media are removed from the flasks and stored under liquid nitrogen. At day seven, two more 1 ml aliquots of media are removed from the flasks and stored under liquid nitrogen. In addition, the remaining cells are pelleted and stored at −80° C.
The samples produced from this experiment are itemized and then assayed for HIV-RT using the Reverse Transcriptase Assay, non-radioactive (Boehringer Mannheim). The standard curve is determined and the HIV-RT levels for the experimental samples are calculated.
This experiment is carried out using a similar procedure, and the same concentrations of materials as in Experiment 7, however the exposure of the HIV virus in T-cell pellets to PEG-ASNase and Saquinavir alone, and in combination is measured. It should be noted that “PEG” in Table 2a represents PEG-ASNase. […]

Nc1ccn([C@@H]2CS[C@H](CO)O2)c(=O)n1 [3TC, lamivudine]
MEAN ([1]; Table 10): 1752 copies/mL | N* ([1]; Table 10, per specimen, day 7 post Rx, PEG 0.400 IU/ml, SAQ 25 uM, AZT 1 uM, 3TC 1 uM, combinations PEG 0.233 IU/ml + SAQ 14.52 uM): 1700 copies/mL and 1836 copies/mL and 1719 copies/mL | % OF CONTROL ([1]; Table 10 and Experiment 11): 39.58% | MEAN X3 (HIV-RT) [2]: 0.004 ng/well
